These results are taken from patent US20240199546A1, “INHIBITORS OF SOLUTE CARRIER FAMILY 6A MEMBER 19 (SLC6A19) AND METHODS OF USE THEREOF” (Maze Therapeutics, Inc., priority 2022, published 2024).

Molecules are shown by their SMILES.

The assay concerns the target T1, human SLC6A19 and TMEM27 (Homo sapiens, UniProt Q695T7).
T1 construct: expressed in transfected cells
T1 sequence (Q695T7 1-634): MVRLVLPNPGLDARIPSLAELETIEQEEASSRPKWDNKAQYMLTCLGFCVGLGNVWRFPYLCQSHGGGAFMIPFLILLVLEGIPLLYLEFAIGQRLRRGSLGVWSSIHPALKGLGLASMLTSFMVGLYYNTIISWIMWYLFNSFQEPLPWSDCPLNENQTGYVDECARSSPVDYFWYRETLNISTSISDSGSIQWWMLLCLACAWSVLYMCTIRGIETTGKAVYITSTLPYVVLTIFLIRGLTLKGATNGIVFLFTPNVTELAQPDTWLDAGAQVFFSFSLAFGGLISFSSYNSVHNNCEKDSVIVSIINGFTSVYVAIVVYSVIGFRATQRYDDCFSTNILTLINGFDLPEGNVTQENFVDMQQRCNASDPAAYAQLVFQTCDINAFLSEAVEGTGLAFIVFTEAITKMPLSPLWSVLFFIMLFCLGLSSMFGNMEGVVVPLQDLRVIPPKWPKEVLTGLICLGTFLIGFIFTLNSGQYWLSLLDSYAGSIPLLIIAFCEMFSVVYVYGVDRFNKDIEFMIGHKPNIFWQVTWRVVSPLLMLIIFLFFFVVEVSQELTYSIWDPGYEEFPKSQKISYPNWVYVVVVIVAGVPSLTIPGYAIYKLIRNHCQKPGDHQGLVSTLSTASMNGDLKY
T1 sequence (Q9HBJ8 15-222 partner): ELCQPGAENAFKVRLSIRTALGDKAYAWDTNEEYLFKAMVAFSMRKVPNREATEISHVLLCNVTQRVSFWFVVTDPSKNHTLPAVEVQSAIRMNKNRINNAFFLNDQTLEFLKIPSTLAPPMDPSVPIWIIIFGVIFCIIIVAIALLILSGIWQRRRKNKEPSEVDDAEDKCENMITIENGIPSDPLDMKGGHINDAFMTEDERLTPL
Kind of assay: Radiolabelled (3H) leucine uptake in CHO cells with doxycycline-inducible expression of human SLC6A19 and TMEM27 (Example B-1). The assay is classed as cell-based. The note with it: CHO cells with doxycycline-inducible expression of human SLC6A19 and TMEM27, read-out: SLC6A19_Radioligand Uptake Assay IC50. An outline of the steps: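 CHO cells were induced with doxycycline for 18 h at 37 °C, washed in HBSS, then exposed to compounds for 1 h: 8-point, 3-fold dilutions in duplicate, 0.5% DMSO final. Uptake measured by scintillation counting after 2 h shaking. Activity normalized with positive control as 0% and DMSO as 100%.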
For the compound `CC1(C(=O)NCc2cc3cc(OC(F)(F)F)c(CCc4cscn4)cc3[nH]2)CC1` [Compound 509, 1-methyl-N-((6-(2-(thiazol-4-yl)ethyl)-5-(trifluoromethoxy)-1H-indol-2-yl)methyl)cyclopropane-1-carboxamide], the IC50 (as a rule, the concentration needed to halve the response being measured) turned out to be 1520 nM.
As for `Cc1cc(COc2cc3[nH]c(CNC(=O)CC4(O)CC4)cc3cc2Cl)on1` [Compound 237, N-((5-chloro-6-((3-methylisoxazol-5-yl)methoxy)-1H-indol-2-yl)methyl)-2-(1-hydroxycyclopropyl)acetamide], the IC50 amounted to 1410 nM.
Take `O=C(NCc1cc2cc(OC(F)(F)F)c(CCc3cscn3)cc2[nH]1)N1CCC1` [Compound 596, N-((6-(2-(thiazol-4-yl)ethyl)-5-(trifluoromethoxy)-1H-indol-2-yl)methyl)azetidine-1-carboxamide]: the IC50 was 336 nM.
Under `CC1CCN(C(=O)NCc2cc3cc(F)c(OCc4ccon4)cc3[nH]2)C1` (stereo not drawn) [Compound 91, N-((5-fluoro-6-(isoxazol-3-ylmethoxy)-1H-indol-2-yl)methyl)-3-methylpyrrolidine-1-carboxamide] stands 524 nM; under `Cc1cc(CNc2cc3[nH]c(CNC(=O)N4CCCC4)cc3cc2Cl)no1` [Compound 469, N-((5-chloro-6-(((5-methylisoxazol-3-yl)methyl)amino)-1H-indol-2-yl)methyl)pyrrolidine-1-carboxamide], 392 nM.
For `O=C(NCc1cc2cc(Cl)c(OCc3cscn3)cc2[nH]1)C1(CO)CC1` [Compound 254, N-((5-chloro-6-(thiazol-4-ylmethoxy)-1H-indol-2-yl)methyl)-1-(hydroxymethyl)cyclopropane-1-carboxamide], the IC50 was found to be 294 nM.
As for `O=C(NCc1cc2cc(Cl)c(OCc3cscn3)cc2[nH]1)[C@H]1CCO1` [Compound 259, (R)-N-((5-chloro-6-(thiazol-4-ylmethoxy)-1H-indol-2-yl)methyl)oxetane-2-carboxamide], the IC50 was 121 nM.
`CSc1cc2cc(CNC(=O)C3(C)CC3)[nH]c2cc1OCc1ccon1` [Compound 391, N-((6-(isoxazol-3-ylmethoxy)-5-(methylthio)-1H-indol-2-yl)methyl)-1-methylcyclopropane-1-carboxamide]: the IC50 was determined as 225 nM.
In the case of `O=C(NCc1cc2cc(Cl)c(CCc3ccon3)cc2[nH]1)N1CCC1` [Compound 595, N-((5-chloro-6-(2-(isoxazol-3-yl)ethyl)-1H-indol-2-yl)methyl)azetidine-1-carboxamide], the IC50 was 240 nM.
Regarding `Cc1cc(COc2cc3[nH]c(CNC(=O)C4(F)CC4)cc3cc2F)on1` [Compound 572, 1-fluoro-N-((5-fluoro-6-((3-methylisoxazol-5-yl)methoxy)-1H-indol-2-yl)methyl)cyclopropane-1-carboxamide], the IC50 came out at 113 nM.
Under `CC1(C(=O)NCc2cc3ccc(OCc4cscn4)c(F)c3[nH]2)CC1` [Compound 19, N-((7-fluoro-6-(thiazol-4-ylmethoxy)-1H-indol-2-yl)methyl)-1-methylcyclopropane-1-carboxamide] stands 341 nM; under `CC1(C(=O)NCc2cc3cc(OC(F)(F)F)c(CCc4cocn4)cc3[nH]2)CC1` [Compound 514, 1-methyl-N-((6-(2-(oxazol-4-yl)ethyl)-5-(trifluoromethoxy)-1H-indol-2-yl)methyl)cyclopropane-1-carboxamide], 408 nM; under `CC(F)(F)C(=O)NCc1cc2cc(F)c(OCc3cscn3)cc2[nH]1` [Compound 436, 2,2-difluoro-N-((5-fluoro-6-(thiazol-4-ylmethoxy)-1H-indol-2-yl)methyl)propanamide], 97 nM.
On to `O=C(NCc1cc2cc(Cl)c(OCc3cscn3)cc2[nH]1)C1CCOC1` (stereo not drawn) [Compound 267, N-((5-chloro-6-(thiazol-4-ylmethoxy)-1H-indol-2-yl)methyl)tetrahydrofuran-3-carboxamide], for which the IC50 is 720 nM.
Under `Cc1cc(C(C)Cc2ccc3cc(CNC(=O)C4(C)CC4)[nH]c3c2)no1` (stereo not drawn) [Compound 195, 1-methyl-N-((6-(2-(5-methylisoxazol-3-yl)propyl)-1H-indol-2-yl)methyl)cyclopropanecarboxamide] stands 14800 nM; under `C[C@H]1CCN1C(=O)NCc1cc2cc(Cl)c(OCc3cscn3)cc2[nH]1` [Compound 360, (S)-N-((5-chloro-6-(thiazol-4-ylmethoxy)-1H-indol-2-yl)methyl)-2-methylazetidine-1-carboxamide], 432 nM.
Take `O=C(NCc1cc2cc(Cl)c(OCc3cscn3)cc2[nH]1)C1COC1` [Compound 261, N-((5-chloro-6-(thiazol-4-ylmethoxy)-1H-indol-2-yl)methyl)oxetane-3-carboxamide]: the IC50 came out at 105 nM.
The value for `CC(=O)NCc1cc2cc(Cl)c(OCc3cocn3)cc2[nH]1` [Compound 206, N-((5-chloro-6-(oxazol-4-ylmethoxy)-1H-indol-2-yl)methyl)acetamide] was 217 nM; that for `CC1(C(=O)NCc2cc3cc(CCC#N)c(OCc4cscn4)cc3[nH]2)CC1` [Compound 641, N-((5-(2-cyanoethyl)-6-(thiazol-4-ylmethoxy)-1H-indol-2-yl)methyl)-1-methylcyclopropane-1-carboxamide] was 2100 nM; that for `CC1(C(=O)NCc2cc3cc(Cl)c(OCCC4CCC4)cc3[nH]2)CC1` [Compound 394, N-((5-chloro-6-(2-cyclobutylethoxy)-1H-indol-2-yl)methyl)-1-methylcyclopropane-1-carboxamide] was 676 nM.
Under `Cc1cc(COc2cc3[nH]c(CNC(=O)C[C@@H](C)O)cc3cc2Cl)on1` [Compound 287, (R)-N-((5-chloro-6-((3-methylisoxazol-5-yl)methoxy)-1H-indol-2-yl)methyl)-3-hydroxybutanamide] stands 2400 nM; under `CC(=O)NCc1cc2ccc(OCc3cc(C)no3)cc2[nH]1` [Compound 349, N-((6-((3-methylisoxazol-5-yl)methoxy)-1H-indol-2-yl)methyl)acetamide], 2930 nM.
Consider `O=C(CO)NCc1cc2cc(Cl)c(OCc3cscn3)cc2[nH]1` [Compound 244, N-((5-chloro-6-(thiazol-4-ylmethoxy)-1H-indol-2-yl)methyl)-2-hydroxyacetamide], for which the IC50 stood at 391 nM.
For `Cc1cc(COc2cc3[nH]c(CNC(=O)[C@H](C)CO)cc3cc2Cl)on1` [Compound 536, (R)-N-((5-chloro-6-((3-methylisoxazol-5-yl)methoxy)-1H-indol-2-yl)methyl)-3-hydroxy-2-methylpropanamide], the IC50 turned out to be 1360 nM.
On to `Cc1cc(COc2cc3[nH]c(CNC(=O)CC(F)(F)F)cc3cc2Cl)on1` [Compound 564, N-((5-chloro-6-((3-methylisoxazol-5-yl)methoxy)-1H-indol-2-yl)methyl)-3,3,3-trifluoropropanamide], for which the IC50 is 174 nM.
Under `CC1(C(=O)NCc2cc3cc(Cl)c(CCn4cnnn4)cc3[nH]2)CC1` [Compound 585, N-((6-(2-(1H-tetrazol-1-yl)ethyl)-5-chloro-1H-indol-2-yl)methyl)-1-methylcyclopropane-1-carboxamide] stands greater than 9230 nM.
Under `Cc1cc(COc2cc3[nH]c(CNC(=O)[C@H]4COCCO4)cc3cc2Cl)on1` [Compound 304, (R)-N-((5-chloro-6-((3-methylisoxazol-5-yl)methoxy)-1H-indol-2-yl)methyl)-1,4-dioxane-2-carboxamide] stands 718 nM.
